This passage reports IC50 and inhibition results from ChEMBL document CHEMBL3860036, “Sesquiterpene Hydroquinones with Protein Tyrosine Phosphatase 1B Inhibitory Activities from a Dysidea sp. Marine Sponge Collected in Okinawa” (J Nat Prod, 2016).

SMILES strings stand for the structures.

The target of assay [1] is T1, Tyrosine-protein phosphatase non-receptor type 1 (Homo sapiens, UniProt P18031).
T1 sequence (P18031 whole entry): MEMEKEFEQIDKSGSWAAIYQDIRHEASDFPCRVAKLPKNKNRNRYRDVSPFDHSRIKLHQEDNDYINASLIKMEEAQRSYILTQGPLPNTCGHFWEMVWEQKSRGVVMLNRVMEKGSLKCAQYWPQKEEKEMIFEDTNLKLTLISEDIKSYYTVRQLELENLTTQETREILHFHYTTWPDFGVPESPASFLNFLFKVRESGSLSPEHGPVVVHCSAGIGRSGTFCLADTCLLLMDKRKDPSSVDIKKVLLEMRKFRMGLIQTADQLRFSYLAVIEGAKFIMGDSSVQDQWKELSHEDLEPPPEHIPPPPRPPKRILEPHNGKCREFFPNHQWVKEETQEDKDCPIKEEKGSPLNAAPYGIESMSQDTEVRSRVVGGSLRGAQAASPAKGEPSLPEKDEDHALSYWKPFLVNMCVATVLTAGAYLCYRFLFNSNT
Description: Inhibition of recombinant human PTP1B (1 to 322 residues) expressed in Escherichia coli using pNPP as substrate preincubated for 10 mins followed by substrate addition measured after 30 mins

Assay [2] addresses T2, Tyrosine-protein phosphatase non-receptor type 1 (Homo sapiens) (UniProt P18031).
T2 sequence (whole entry): T1 sequence (P18031 whole entry)
As to the kind of experiment: Inhibition of recombinant human PTP1B (1 to 322 residues) expressed in Escherichia coli at 31 uM preincubated for 10 mins followed by pNPP substrate addition measured after 30 mins relative to control.

Assay [3] addresses T2, Tyrosine-protein phosphatase non-receptor type 1 (Homo sapiens). Particulars: 32 uM.
Description: Inhibition of recombinant human PTP1B (1 to 322 residues) expressed in Escherichia coli at 32 uM preincubated for 10 mins followed by pNPP substrate addition measured after 30 mins relative to control
For assay [4] the target is unchanged. The note with it: 25 uM.
Description: Inhibition of recombinant human PTP1B (1 to 322 residues) expressed in Escherichia coli at 25 uM preincubated for 10 mins followed by pNPP substrate addition measured after 30 mins relative to control

As for `CC1=CCC[C@H]2[C@]3(C)Cc4cc(O)ccc4O[C@]3(C)CC[C@]12C`, 11 µM corresponded to half-maximal inhibition in assay [1] (IC50).
On the same count and under the same terms, the figure for `C=C1CCC[C@H]2[C@](C)(Cc3cc(OC(C)=O)ccc3O)[C@@H](C)CC[C@]12C` is 8.6 µM; for `C=C1CCC[C@H]2[C@](C)(Cc3cc(OC(=O)CC)ccc3OC(=O)CC)[C@@H](C)CC[C@]12C` it is 9.4 µM.
The same measure, in the same setting: the figure for `C=C1CCC[C@H]2[C@](C)(Cc3cc(O)ccc3OC(C)=O)[C@@H](C)CC[C@]12C` is 6.5 µM.
In the case of `C=C1CCC[C@H]2[C@](C)(Cc3cc(OC)ccc3O)[C@@H](C)CC[C@]12C`, in assay [2], the inhibition (in general, the percentage by which the read-out fell short of the control) came out at 50%.
Regarding `CC(=O)Oc1ccc(O)c(C[C@]2(C)[C@@H](C)CC[C@]3(C)C(C)=CCC[C@@H]23)c1`, in assay [1], half-maximal inhibition (IC50) was put at 10 µM.
Same read-out and setting: the figure for `C=C1CCC[C@H]2[C@](C)(Cc3cc(OC(C)=O)ccc3OC(C)=O)[C@@H](C)CC[C@]12C` is 14 µM.
Still for that read-out and setting: the figure for `CC(=O)Oc1ccc(O)cc1C[C@]1(C)[C@@H](C)CC[C@]2(C)C(C)=CCC[C@@H]12` is 9.5 µM.
`C=C1CCC[C@H]2[C@](C)(Cc3cc(O)ccc3O)[C@@H](C)CC[C@]12C`: in assay [1], the IC50 – broadly, the concentration needed to halve the response being measured – was over 32 µM. Besides, in assay [3], the inhibition was determined as 35%.
`CC(=O)Oc1ccc(OC(C)=O)c(C[C@]2(C)[C@@H](C)CC[C@]3(C)C(C)=CCC[C@@H]23)c1` returned an inhibition in assay [4] of 5%.
With `CC1=CCC[C@H]2[C@](C)(Cc3cc(O)ccc3O)[C@@H](C)CC[C@]12C` [AVAROL], in assay [1], the IC50 is 12 µM.
Same read-out and setting: the figure for `CCC(=O)Oc1ccc(OC(=O)CC)c(C[C@]2(C)[C@@H](C)CC[C@]3(C)C(C)=CCC[C@@H]23)c1` is 8.8 µM.
As for `COc1ccc(O)c(C[C@]2(C)[C@@H](C)CC[C@]3(C)C(C)=CCC[C@@H]23)c1`, the inhibition in assay [2] was 0%.
For `CC1=CCC[C@H]2[C@](C)(CC3=CC(=O)C=C(N)C3=O)[C@@H](C)CC[C@]12C`, the IC50 in assay [1] was found to be 18 µM.
